Laboratory results taken from ChEMBL document CHEMBL5260848, “Recent advancements in the development of bioactive pyrazoline derivatives” (Eur J Med Chem, 2020).
Values after ≈ are worked out from the molar mass of the structure shown.

How the values were obtained:
Escherichia coli = test: Antibacterial activity against Escherichia coli incubated for 24 hrs by disc diffusion method; assay type: functional
Aspergillus fumigatus = test: Antifungal activity against Aspergillus fumigatus incubated for 24 hrs by disc diffusion method; assay type: functional
Aspergillus niger = test: Antifungal activity against Aspergillus niger incubated for 24 hrs by disc diffusion method; assay type: functional
Aspergillus flavus = test: Antifungal activity against Aspergillus flavus incubated for 24 hrs by disc diffusion method; assay type: functional
[1] = system: Mycobacterium tuberculosis; test: microbe, parasite or virus in culture; conditions: 120 h
Staphylococcus aureus = test: microbe, parasite or virus in culture; conditions: 24 h
Bacillus subtilis = test: microbe, parasite or virus in culture; conditions: 24 h
Pseudomonas aeruginosa = test: microbe, parasite or virus in culture; conditions: 24 h
Candida albicans = test: microbe, parasite or virus in culture; conditions: 24 h
Mus musculus [2] = species: Mus musculus; test: Antidepressant activity in mouse assessed as […] by tail suspension test; assay type: functional
Mus musculus [3] = species: Mus musculus; test: Antidepressant activity in mouse assessed as […] by forced swimming test; assay type: functional
Homo sapiens = species: Homo sapiens; test: Selectivity index, ratio of Ki for human MAO-A to Ki for human MAO-B
[4] = target: T1, Amine oxidase [flavin-containing] A (Homo sapiens, UniProt P21397)
T1 sequence (P21397 whole entry): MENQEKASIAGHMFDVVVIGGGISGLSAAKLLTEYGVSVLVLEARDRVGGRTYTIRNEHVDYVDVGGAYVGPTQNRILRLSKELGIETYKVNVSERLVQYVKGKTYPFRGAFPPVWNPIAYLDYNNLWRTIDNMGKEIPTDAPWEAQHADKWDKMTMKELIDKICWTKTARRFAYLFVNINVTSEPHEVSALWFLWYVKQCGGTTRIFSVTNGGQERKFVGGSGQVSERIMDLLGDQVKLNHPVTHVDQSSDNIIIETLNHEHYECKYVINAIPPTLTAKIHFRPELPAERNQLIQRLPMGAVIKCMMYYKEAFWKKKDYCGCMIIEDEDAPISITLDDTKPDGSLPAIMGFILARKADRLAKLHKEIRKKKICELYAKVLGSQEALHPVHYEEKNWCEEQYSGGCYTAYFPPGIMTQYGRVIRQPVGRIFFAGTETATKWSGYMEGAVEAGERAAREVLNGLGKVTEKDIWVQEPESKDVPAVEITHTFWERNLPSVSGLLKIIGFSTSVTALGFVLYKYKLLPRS

[5] = target: T2, Amine oxidase [flavin-containing] B (Homo sapiens, UniProt P27338)
T2 sequence (P27338 whole entry): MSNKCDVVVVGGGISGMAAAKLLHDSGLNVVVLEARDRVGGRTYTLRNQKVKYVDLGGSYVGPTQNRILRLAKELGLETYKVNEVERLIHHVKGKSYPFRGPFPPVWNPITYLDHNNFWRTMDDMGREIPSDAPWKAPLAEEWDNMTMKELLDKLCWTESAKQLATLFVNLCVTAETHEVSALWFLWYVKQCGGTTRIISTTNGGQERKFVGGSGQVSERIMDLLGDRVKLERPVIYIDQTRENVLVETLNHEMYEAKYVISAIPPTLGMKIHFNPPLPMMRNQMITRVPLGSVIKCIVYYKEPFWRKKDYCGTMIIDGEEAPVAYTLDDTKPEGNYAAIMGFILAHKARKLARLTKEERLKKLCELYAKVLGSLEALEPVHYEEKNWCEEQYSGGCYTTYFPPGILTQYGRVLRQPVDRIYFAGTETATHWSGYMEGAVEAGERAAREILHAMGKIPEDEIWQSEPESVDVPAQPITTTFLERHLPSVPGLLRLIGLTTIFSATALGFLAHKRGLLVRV

Mus musculus [6] = species: Mus musculus; test: Antidepressant activity in Swiss albino mouse assessed as decrease in immobility time by forced swimming test; assay type: functional
Mus musculus [7] = species: Mus musculus; test: Antidepressant activity in Swiss albino mouse assessed as decrease in immobility time by tail suspension test; assay type: functional

Row | Structure (SMILES) | MIC (Escherichia coli) [µg/mL] | MIC (Aspergillus fumigatus) [µg/mL] | MIC (Aspergillus niger) [µg/mL] | MIC (Aspergillus flavus) [µg/mL] | MIC [1] [µg/mL] | MIC (Staphylococcus aureus) [µg/mL] | MIC (Bacillus subtilis) [µg/mL] | MIC (Pseudomonas aeruginosa) [µg/mL] | MIC (Candida albicans) [µg/mL] | Time (Mus musculus [2]) [s] | Time (Mus musculus [3]) [s] | Ratio Ki (Homo sapiens) | Ki [4] [nM] | Ki [5] [nM] | further results
1 | O=C(NNS(=O)(=O)c1ccc(F)cc1F)N1N=C(c2ccccc2)CC1c1ccccc1 (stereo not given) | 25 (≈ 54.8 µM) | 25 (≈ 54.8 µM) | 25 (≈ 54.8 µM) | 25 (≈ 54.8 µM) | 0.8 (≈ 1.75 µM) | 25 (≈ 54.8 µM) | 25 (≈ 54.8 µM) | 25 (≈ 54.8 µM) | 25 (≈ 54.8 µM) |  |  |  |  |  | 
2 | COc1ccc(C2CC(c3ccccn3)=NN2)cc1OC (stereo not given) |  |  |  |  |  |  |  |  |  | 21.17 | 21.17 |  |  |  | 
3 | O=C(NNS(=O)(=O)c1ccccc1)N1N=C(c2ccccc2)CC1c1ccc(Br)cc1 (stereo not given) | 25 (≈ 50.1 µM) | 25 (≈ 50.1 µM) | 25 (≈ 50.1 µM) | 25 (≈ 50.1 µM) | 0.8 (≈ 1.6 µM) | 25 (≈ 50.1 µM) | 25 (≈ 50.1 µM) | 25 (≈ 50.1 µM) | 25 (≈ 50.1 µM) |  |  |  |  |  | 
4 | CCNC(=S)N1N=C(c2ccc(Cl)cc2)CC1c1ccc(F)cc1 (stereo not given) |  |  |  |  |  |  |  |  |  |  |  | 0.000464 | 0.1 | 200 | 
5 | O=C(NNS(=O)(=O)c1ccc(F)cc1)N1N=C(c2ccccc2)CC1c1ccc(F)cc1 (stereo not given) | 25 (≈ 54.8 µM) | 25 (≈ 54.8 µM) | 25 (≈ 54.8 µM) | 25 (≈ 54.8 µM) | 0.8 (≈ 1.75 µM) | 25 (≈ 54.8 µM) | 25 (≈ 54.8 µM) | 25 (≈ 54.8 µM) | 25 (≈ 54.8 µM) |  |  |  |  |  | 
6 | COc1ccc(C2CC(c3cccc4ccccc34)=NN2)cc1OC (stereo not given) |  |  |  |  |  |  |  |  |  | 36.83 | 21.17 |  |  |  | 
7 | COc1ccc(C2=NN(C(=S)Nc3ccccc3)C(c3ccc(F)cc3)C2)cc1 (stereo not given) |  |  |  |  |  |  |  |  |  |  |  | 0.000464 | 0.1 | 200 | 
8 | Oc1ccc(C2=NNC(c3ccco3)C2)cc1 (stereo not given) |  |  |  |  |  |  |  |  |  | 21.17 | 21.17 |  |  |  | 
9 | C=CCNC(=S)N1N=C(c2ccccc2)CC1c1ccc(F)cc1 (stereo not given) |  |  |  |  |  |  |  |  |  |  |  | 0.000464 | 0.1 | 200 | 
10 | Cc1ccc(C2CC(c3ccccc3)=NN2C(=O)NNS(=O)(=O)c2ccc(F)cc2)cc1 (stereo not given) | 25 (≈ 55.2 µM) | 25 (≈ 55.2 µM) | 25 (≈ 55.2 µM) | 25 (≈ 55.2 µM) | 0.8 (≈ 1.77 µM) | 25 (≈ 55.2 µM) | 25 (≈ 55.2 µM) | 25 (≈ 55.2 µM) | 25 (≈ 55.2 µM) |  |  |  |  |  | 
11 | Cc1nc(-c2ccc(Br)cc2)ccc1C1=NNC(c2cc(F)cc(F)c2)C1 (stereo not given) |  |  |  |  |  |  |  |  |  |  |  |  |  |  | Time (Mus musculus [6]): 66.67 s; Time (Mus musculus [7]): 70.33 s
12 | Clc1ccc(C2CC(c3ccccn3)=NN2)cc1 (stereo not given) |  |  |  |  |  |  |  |  |  | 21.17 | 21.17 |  |  |  | 
13 | Fc1ccc(C2CC(c3ccccc3)=NN2C(=S)Nc2ccccc2)cc1 (stereo not given) |  |  |  |  |  |  |  |  |  |  |  | 0.000464 | 0.1 | 200 | 
14 | O=C(NNS(=O)(=O)c1ccc(F)cc1F)N1N=C(c2ccccc2)CC1c1ccc(Br)cc1 (stereo not given) | 25 (≈ 46.7 µM) | 25 (≈ 46.7 µM) | 25 (≈ 46.7 µM) | 25 (≈ 46.7 µM) | 0.8 (≈ 1.49 µM) | 25 (≈ 46.7 µM) | 25 (≈ 46.7 µM) | 25 (≈ 46.7 µM) | 25 (≈ 46.7 µM) |  |  |  |  |  | 
15 | CNC(=S)N1N=C(c2ccccc2)CC1c1ccc(F)cc1 (stereo not given) |  |  |  |  |  |  |  |  |  |  |  | 0.000464 | 0.1 | 200 | 
16 | c1coc(C2CC(c3cccc4ccccc34)=NN2)c1 (stereo not given) |  |  |  |  |  |  |  |  |  | 21.17 | 21.17 |  |  |  | 
17 | c1ccc(C2=NNC(c3cccs3)C2)nc1 (stereo not given) |  |  |  |  |  |  |  |  |  | 21.17 | 21.17 |  |  |  | 
18 | O=C(NNS(=O)(=O)c1ccc(F)cc1)N1N=C(c2ccccc2)CC1c1ccc(Cl)cc1 (stereo not given) | 25 (≈ 52.9 µM) | 25 (≈ 52.9 µM) | 25 (≈ 52.9 µM) | 25 (≈ 52.9 µM) | 0.8 (≈ 1.69 µM) | 25 (≈ 52.9 µM) | 25 (≈ 52.9 µM) | 25 (≈ 52.9 µM) | 25 (≈ 52.9 µM) |  |  |  |  |  | 
19 | Clc1ccc(C2CC(c3cccc4ccccc34)=NN2)cc1 (stereo not given) |  |  |  |  |  |  |  |  |  | 29.67 | 43.33 |  |  |  | 
20 | CCNC(=S)N1N=C(c2ccc(OC)cc2)CC1c1ccc(F)cc1 (stereo not given) |  |  |  |  |  |  |  |  |  |  |  | 0.000464 | 0.1 | 200 | 
21 | CCNC(=S)N1N=C(c2ccccc2)CC1c1ccc(F)cc1 (stereo not given) |  |  |  |  |  |  |  |  |  |  |  | 0.000464 | 0.1 | 200 | 
22 | O=C(NNS(=O)(=O)c1ccccc1)N1N=C(c2ccccc2)CC1c1ccc(Cl)cc1 (stereo not given) | 25 (≈ 55 µM) | 25 (≈ 55 µM) | 25 (≈ 55 µM) | 25 (≈ 55 µM) | 1.6 (≈ 3.52 µM) | 25 (≈ 55 µM) | 25 (≈ 55 µM) | 25 (≈ 55 µM) | 25 (≈ 55 µM) |  |  |  |  |  | 
